Assays:
[1] = system: P. acidipropionici wild type; assay: Propionic acid inhibition of specific growth rate, free-cell culture, wild type; details: at 20 g/L propionic acid
[2] = system: P. acidipropionici adapted ACK-Tet from FBB; details: at 20 g/L propionic acid
[3] = system: C. tyrobutyricum original culture (wild type); assay: Butyrate inhibition of cell growth, noncompetitive product inhibition model, original culture; assay type: cell-based, Clostridium tyrobutyricum

SMILES	growth rate lost [1]	specific growth rate retained relative to 0 g/L of propionic acid [2]	butyrate concentration beyond which the culture lost its ability to grow [3]
CCC(=O)O [propionic acid]	more than 80%	about 75%	
CCCC(=O)O [butyric acid]			> 20 g/L

From patent US20110151529A1, “METHODS AND PROCESSES FOR PRODUCING ORGANIC ACIDS” (THE OHIO STATE UNIVERSITY, priority 2008, published 2011)
